Assay results taken from PMC6920806, “Synthesis of β-D-galactopyranoside-Presenting Glycoclusters, Investigation of Their Interactions with Pseudomonas aeruginosa Lectin A (PA-IL) and Evaluation of Their Anti-Adhesion Potential” (Biomolecules, 2019).
In brackets after ≈: the same amount, converted by molar mass.

Assays:
lectin PA-IL [1] = target: T1, lectin PA-IL (Pseudomonas aeruginosa, UniProt Q05097); assay: Hemagglutination inhibition assay (HIA) with microscope detection; type: biochemical
T1 construct: made in house; host or cells: Escherichia coli BL21(DE3)
T1 sequence (Q05097 2-122): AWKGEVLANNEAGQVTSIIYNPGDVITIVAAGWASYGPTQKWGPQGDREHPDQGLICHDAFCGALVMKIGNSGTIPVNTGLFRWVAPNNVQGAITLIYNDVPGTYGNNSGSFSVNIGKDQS
Procedure: PA-IL was dissolved in the buffer with calcium ions suitable for the activity of the lectin (20 mM Tris/HCl, 150 mM NaCl, 5 mM CaCl2, pH = 7.5) to the concentration 0.25 mg mL^−1. Lectin was mixed with carbohydrate inhibitors serially diluted in the buffer in a 5 µL:5 µL ratio. Therefore, the final (working) concentration of the lectin was 0.125 mg mL^−1. A total of 10 µL of 20% papain-treated, azid-stabilized red blood cells B^+ in the buffer was then added, and the mixture was thoroughly mixed and incubated for 5 min at room temperature. After incubation, the mixture was again mixed, transferred to a microscope slide, and examined. The examination was conducted using the Levenhuk D2L NG Digital Microscope (Levenhuk, Tampa, FL, USA). Images were obtained with a Levenhuk D2L digital camera (Levenhuk, Tampa, FL, USA) using the software ToupView for Windows (Version 3.7, Levenhuk, Tampa, FL, USA). The positive (experiment without inhibitor) and negative control (experiment without lectin) were prepared and processed in the same way using the appropriate volume of dissolving buffer instead of the omitted components. The minimal inhibitory concentration (MIC) of the inhibitor able to inhibit hemagglutination was determined and compared with the standard (D-galactose) and the potency of the inhibitor was calculated (MIC of the standard/MIC of the inhibitor).

lectin PA-IL [2] = target: T1, lectin PA-IL; assay: SPR inhibition of PA-IL binding to immobilized D-galactosides
Procedure: Surface plasmon resonance (SPR) experiments were performed on a BIAcore T200 instrument (GE Healthcare, Chicago, IL, USA) at 25 °C, using HBST running buffer (10 mM HEPES, 150 mM NaCl, 0.5 mM CaCl2, 0.05% Tween 20, pH = 7). A CM5 sensor chip (GE Healthcare, Chicago, IL, USA) covered with a carboxymethylated dextran matrix was used for ligand immobilization. The sensor chip surface was activated with N-ethyl-N-(3-dimethylaminopropyl)carbodiimide/N-hydroxysuccinimide solution and then coated with streptavidin (Sigma-Aldrich, St. Louis, MO, USA) in 10 mM acetate pH = 5.0 according to the manufacturer’s standard protocol to a final response of 7000 RU. Unreacted groups were blocked with 1 M ethanolamine-HCl, pH = 8.5. 0.5 mM biotinylated carbohydrate (1:1 mixture of biotin-α-D-galactoside and biotin-β-D-galactoside for measuring channel and α-L-fucoside for blank channel, all Lectinity, Moskow, Russia) was injected into a particular channel at a flow rate of 5 μL min^−1.
In the experimental setup, SPR inhibition measurements were carried out simultaneously on both measuring and blank channels at a flow rate of 5 µL min^−1. […] The response of the blank channel was subtracted from the response of lectin bound to the galactose-modified surface at equilibrium and plotted against the concentration of inhibitor in order to determine IC50 (concentration of inhibitor resulting in 50% inhibition of binding). As IC50 is not a constant and depends on the experimental set-up, a parameter called potency was used for characterization. The potency of a tested inhibitor is the ratio of IC50 of a chosen standard inhibitor (in this case, D-galactose) and the inhibitor in question. Pure lectin PA-IL was used as a control (0% inhibition).

lectin PA-IL [3] = target: T1, lectin PA-IL; assay: Isothermal titration microcalorimetry (ITC); type: binding
Procedure: All the experiments were performed on MicroCal iTC200 (Malvern Instruments, Malvern, UK) at 25 °C. The freeze-dried lectin PA-IL was dissolved in 0.1 M Tris/HCl, 500 μM CaCl2, pH = 7.5, and equilibrated at room temperature for 1 h before ITC measurements. Multivalent galactosylated compounds 4, 7, 10 and 13 were diluted in the same buffer and used in 0.25–0.5 mM concentrations. Aliquots of 2 µL of the compounds were added automatically to the 0.078 mM or 0.088 mM PA-IL in the calorimeter cell. Blank experiments (injections of compounds to the buffer) were performed and heat responses were subtracted. Integrated heat effects were analyzed by global fitting of data obtained from three independent titrations for each tested compound by non-linear regression using a single site-binding model (Microcal Origin 7, Malvern Instruments, Malvern, UK). Fitted data yielded the association constant (Ka) and the enthalpy of binding (ΔH). Other thermodynamic parameters, i.e., changes in free energy (ΔG) and entropy (ΔS), were calculated from the following equation: ΔG = ΔH − TΔS = −RT ln Ka, where T is the absolute temperature and R = 8.314 J mol^−1 K^−1. The monosaccharide D-galactose was used as a control; 4 mM D-galactose was added to the 0.147 mM PA-IL in the calorimeter cell. Two titration experiments were performed and the heat responses were processed and evaluated as mentioned above.

lectin PA-IL [4] = target: T1, lectin PA-IL; assay: Analytical ultracentrifugation (sedimentation velocity), cross-linking of lectin; details: protein:ligand ratios 1:0.1, 1:1, 1:10
Procedure: Analytical ultracentrifugation experiments were performed using ProteomeLab XL-I analytical ultracentrifuge (Beckman Coulter, Indianapolis, IN, USA) equipped with an An-60 Ti rotor. Sedimentation velocity experiments were conducted in titanium double-sector centerpiece cells (Nanolytics Instruments, Potsdam, Germany) loaded with 390 µL of both protein sample and reference solution (PBS buffer, pH = 7.5). PA-IL without the added ligand and PA-IL samples pre-incubated with different concentrations of galactosylated dendrimers 4, 7, 10 and 13 and D-galactose (protein:ligand ratios of 1:0.1, 1:1 and 1:10) were analyzed by the sedimentation velocity experiment. All the measurements were performed in PBS buffer with 22 µM PA-IL. Data were collected using absorbance optics at 25 °C at a rotor speed of 48,000 rpm. Scans were collected at 280 nm (or alternatively at 294 nm to decrease the absorbance signal of the samples containing excess of the UV-absorbing ligands 4 and 10) at 5-min intervals and 0.003 cm spatial resolution in continuous scan mode. The partial specific volume of the protein and the solvent density and viscosity were calculated from the amino acid sequence and buffer composition, respectively, using the software Sednterp (http://bitcwiki.sr.unh.edu). The data were analyzed with the continuous c(s) distribution model implemented in the program Sedfit 15.01b. For the regularization procedure, a confidence level of 0.95 was used. The plots of c(s) distributions were created in GUSSI 1.3.1 [28].

[5] = tested on: adhesion of P. aeruginosa (ST 1763) to epithelial bronchial cells (CuFi-1); design: method as in PMID 31216664; details: previous study; cited from earlier work

Compound | Potency (MIC of standard/MIC of inhibitor) (lectin PA-IL [1]; HIA, standard D-galactose) | β (Potency/Valency) (lectin PA-IL [1]; HIA, standard D-galactose) | MIC (minimal inhibitory concentration) (lectin PA-IL [1]; inhibition of hemagglutination caused by PA-IL (0.125 mg mL−1), papain-treated red blood cells B+) [mM] | IC50 (lectin PA-IL [2]) [µM] | Potency (IC50 of standard/IC50 of inhibitor) (lectin PA-IL [2]; SPR, standard D-galactose) | β (Potency/Valency) (lectin PA-IL [2]; SPR, standard D-galactose) | Kd (lectin PA-IL [3]) [µM] | ΔH (lectin PA-IL [3]; ITC, 25 °C) [kJ/mol] | −T ΔS (lectin PA-IL [3]; ITC, 25 °C, calculated from ΔG = ΔH − TΔS) [kJ/mol] | ΔG (lectin PA-IL [3]; ITC, 25 °C, calculated from −RT ln Ka) [kJ/mol] | n (stoichiometry) (lectin PA-IL [3]; ITC, 25 °C, single site-binding model) | cross-linking of PA-IL (formation of the 6.4 S particle) (lectin PA-IL [4]) | most effective concentration [5] [µM]
O=C[C@H](O)[C@@H](O)[C@@H](O)[C@H](O)CO [D-galactose, reference compound] | 1 | 1 | 6.25 (≈ 1130 µg/mL) | 187 | 1 | 1 | 147 | -37.8 ± 2.92 | 15.9 ± 2.12 | -21.9 ± 1.23 | 0.78 ± 0.05 | negligible effect | –
C[C@@H]1O[C@@H](OCc2cn(CCOCCOCCOCCn3cc(COCC(COCc4cn(CCOCCOCCOCCn5cc(CO[C@@H]6O[C@@H](C)[C@@H](O)[C@@H](O)[C@@H]6O)nn5)nn4)(COCc4cn(CCOCCOCCOCCn5cc(CO[C@@H]6O[C@@H](C)[C@@H](O)[C@@H](O)[C@@H]6O)nn5)nn4)COCc4cn(CCOCCOCCOCCn5cc(CO[C@@H]6O[C@@H](C)[C@@H](O)[C@@H](O)[C@@H]6O)nn5)nn4)nn3)nn2)[C@@H](O)[C@H](O)[C@@H]1O [Compound 14] | – | – | – | – | – | – | – | – | – | – | – | – | 250
